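Test compounds were applied to cells in 96-well plates for 48 hours at 5 doses. At the GI50, growth is halved.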 Activity calls are given as the source filed them. No stated cut-off is given here; in the data, active = GI50 up to about 1.1 µM and inactive = higher.
Key:
Experiment in all cases: DTP human tumour cell line panel, 48 h
COLO 205 = tested on: COLO 205
EKVX = tested on: EKVX
HCT-15 = tested on: HCT-15
HOP-92 = tested on: HOP-92
LOX IMVI = tested on: LOX IMVI
M14 = tested on: M14
MCF7 = tested on: MCF7
MOLT-4 = tested on: MOLT-4
NCI-H226 = tested on: NCI-H226
NCI-H460 = tested on: NCI-H460
NCI-H522 = tested on: NCI-H522
NCI/ADR-RES = tested on: NCI/ADR-RES
OVCAR-8 = tested on: OVCAR-8
SK-MEL-28 = tested on: SK-MEL-28
SK-MEL-2 = tested on: SK-MEL-2
SW-620 = tested on: SW-620
U-251 = tested on: U-251
UO-31 = tested on: UO-31
CCRF-CEM = tested on: CCRF-CEM

| SMILES | GI50 (COLO 205) | GI50 (EKVX) | GI50 (HCT-15) | GI50 (HOP-92) | GI50 (LOX IMVI) | GI50 (M14) | GI50 (MCF7) | GI50 (MOLT-4) | GI50 (NCI-H226) | GI50 (NCI-H460) | GI50 (NCI-H522) | GI50 (NCI/ADR-RES) | GI50 (OVCAR-8) | GI50 (SK-MEL-28) | GI50 (SK-MEL-2) | GI50 (SW-620) | GI50 (U-251) | GI50 (UO-31) | GI50 (CCRF-CEM) |
| --- | --- | --- | --- | --- | --- | --- | --- | --- | --- | --- | --- | --- | --- | --- | --- | --- | --- | --- | --- |
| N#CC1CCN2N=C(c3ccccc3)SC12c1ccccc1 (configuration not stated) | 40.7 µM (inactive) | 18.8 µM (inactive) | 38.5 µM | 58.1 µM (inactive) | 51.9 µM (inactive) | 45.6 µM (inactive) | 31.1 µM (inactive) | 17.5 µM (inactive) | 58.1 µM (inactive) | 26.1 µM (inactive) | 46.2 µM (inactive) | 32.9 µM (inactive) | 76.6 µM (inactive) | > 100 µM (inactive) | 53.3 µM (inactive) | 39.4 µM (inactive) | 44 µM (inactive) | 35.1 µM (inactive) |  |
| CCCCCCCCCCCCOC1C(COCCN2CCCC2)OC2OC(C)(C)OC21 (configuration not stated) | 1.82 µM (inactive) | 3.18 µM (inactive) | 1.76 µM | 1.39 µM (inactive) | 1.4 µM (inactive) | 1.85 µM (inactive) | 1.71 µM (inactive) | 1.92 µM (inactive) | 2.56 µM (inactive) |  | 1.23 µM (inactive) | 1.73 µM (inactive) | 1.64 µM (inactive) | 1.72 µM (inactive) | 1.71 µM (inactive) |  | 1.73 µM (inactive) | 1.6 µM (inactive) | 1.86 µM (inactive) |
| CC(C)(C)c1cc(C2=NNC(c3ccccc3)C2)cc(C(C)(C)C)c1O (configuration not stated) | 17.5 µM (inactive) | 16.1 µM (inactive) | 13.8 µM | 14.9 µM (inactive) | 15.9 µM (inactive) | 17.2 µM (inactive) | 13.8 µM (inactive) | 16.6 µM (inactive) | 17.2 µM (inactive) | 15.4 µM (inactive) | 14.7 µM (inactive) | 17 µM (inactive) | 16.7 µM (inactive) | 15.9 µM (inactive) | 14.8 µM (inactive) | 15.7 µM (inactive) | 15.5 µM (inactive) | 15 µM (inactive) |  |
| Nc1nc(-c2ccccc2)c(-c2ccccc2)c(-c2nc(N)nc(-c3ccccc3)c2-c2ccccc2)n1 | > 100 µM (inactive) | 63.7 µM (inactive) | > 100 µM | > 100 µM (inactive) | > 100 µM (inactive) | > 100 µM (inactive) | 49.4 µM (inactive) | > 100 µM (inactive) | > 100 µM (inactive) | 74.3 µM (inactive) | 57.9 µM (inactive) | > 100 µM (inactive) | > 100 µM (inactive) | > 100 µM (inactive) | > 100 µM (inactive) | > 100 µM (inactive) | > 100 µM (inactive) | > 100 µM (inactive) |  |
| CC[C@H](NC1=C(Cl)C(=O)c2c(O)ccc(O)c2C1=O)C(=O)OC | 3.58 µM (inactive) | > 10 µM (inactive) | 5.33 µM | > 10 µM (inactive) | 3.64 µM (inactive) | 3.72 µM (inactive) | 3.94 µM (inactive) | 2.6 µM (inactive) | > 10 µM (inactive) | > 10 µM (inactive) | 3.53 µM (inactive) | 7.28 µM (inactive) | 4.63 µM (inactive) |  | > 10 µM (inactive) | 5.79 µM (inactive) | 6.12 µM (inactive) |  | 3.5 µM (inactive) |
| COC(=O)c1cc(C)ccc1CC(Cc1ccccc1C)C(=O)OC (configuration not stated) | 46.2 µM (inactive) | 18.7 µM (inactive) | 21.4 µM | 14.4 µM (inactive) | 12.5 µM (inactive) | 29.6 µM (inactive) | 23.3 µM (inactive) | 2.56 µM (inactive) | 81.7 µM (inactive) | 78 µM (inactive) | 25.8 µM (inactive) | 32.6 µM (inactive) | 45.5 µM (inactive) | 88.1 µM (inactive) |  | 69 µM (inactive) |  | 31 µM (inactive) | 14 µM (inactive) |
| O=C1NC(S(=O)(=O)O)=NNC12c1ccccc1-c1ccccc12 | > 10 µM (inactive) | > 10 µM (inactive) | > 10 µM | > 10 µM (inactive) | > 10 µM (inactive) | > 10 µM (inactive) | > 10 µM (inactive) | > 10 µM (inactive) | > 10 µM (inactive) | > 10 µM (inactive) | > 10 µM (inactive) | > 10 µM (inactive) | > 10 µM (inactive) | > 10 µM (inactive) |  | > 10 µM (inactive) |  | > 10 µM (inactive) | > 10 µM (inactive) |
| COC(=O)C1(C(=O)OC)N=C(C)OC1/C=C/c1ccccc1 (configuration not stated) | > 100 µM (inactive) | > 100 µM (inactive) | > 100 µM | > 100 µM (inactive) | > 100 µM (inactive) | > 100 µM (inactive) | > 100 µM (inactive) | > 100 µM (inactive) | > 100 µM (inactive) | > 100 µM (inactive) |  | > 100 µM (inactive) | > 100 µM (inactive) | > 100 µM (inactive) | > 100 µM (inactive) | > 100 µM (inactive) | > 100 µM (inactive) | > 100 µM (inactive) | 75.3 µM (inactive) |
| OC(/C(=N/c1ccccc1)c1ccccc1)c1ccccc1 (configuration not stated) | 4.05 µM (inactive) | 2.48 µM (inactive) | 29 µM | 4.05 µM (inactive) | 12.4 µM (inactive) | 4.8 µM (inactive) | 5.62 µM (inactive) | 6.62 µM (inactive) | 10.8 µM (inactive) | 6.5 µM (inactive) | 4.35 µM (inactive) | 23.5 µM (inactive) |  | 2.66 µM (inactive) | 2.26 µM (inactive) | 10.5 µM (inactive) | 4.1 µM (inactive) | 18 µM (inactive) | 3.32 µM (inactive) |
| N[C@H]1CCN(c2c(F)cc3c(=O)c(C(=O)O)cn4c3c2Oc2c-4ccc3c2ccc2ccccc23)C1 | 1.13 µM (inactive) | 0.377 µM (active) | 0.364 µM | 2.46 µM (inactive) | 0.56 µM (active) | 2.15 µM (inactive) | 0.817 µM (active) | 0.0643 µM (active) | 4.02 µM (inactive) | 0.115 µM (active) | 0.498 µM (active) | 2.8 µM (inactive) | 0.664 µM (active) | 2.52 µM (inactive) | 9.77 µM (inactive) | 0.276 µM (active) | 0.121 µM (active) | 1.64 µM (inactive) |  |
| NC(=O)NCCCC(NC(=O)OCCCCn1ccc(=O)[nH]c1=O)C(=O)O (configuration not stated) | > 100 µM (inactive) | > 100 µM (inactive) | > 100 µM | > 100 µM (inactive) | > 100 µM (inactive) | > 100 µM (inactive) | > 100 µM (inactive) | > 100 µM (inactive) | > 100 µM (inactive) | > 100 µM (inactive) |  | > 100 µM (inactive) | > 100 µM (inactive) | > 100 µM (inactive) | > 100 µM (inactive) | > 100 µM (inactive) | > 100 µM (inactive) | > 100 µM (inactive) | > 100 µM (inactive) |
| Cn1c2ccccc2c2[nH]c3ccccc3c(=O)c21 | > 100 µM (inactive) | > 100 µM (inactive) | > 100 µM | 65.5 µM (inactive) | 31.8 µM (inactive) | > 100 µM (inactive) | > 100 µM (inactive) | 50.6 µM (inactive) | > 100 µM (inactive) | > 100 µM (inactive) |  | > 100 µM (inactive) | > 100 µM (inactive) | > 100 µM (inactive) | > 100 µM (inactive) | 88.3 µM (inactive) | > 100 µM (inactive) | > 100 µM (inactive) | > 100 µM (inactive) |
